Assay results from patent publication US4371544A, “Pharmaceutical composition containing 1,1,3,5-substituted biuret compound” (Taiho Pharmaceutical Company Limited, priority 1979, dated 1983).
Where two headings read alike, the source gives them in different places.

Columns and labels:
ddy strain of male mice [1] = assay: Analgesic activity, acetic acid-induced stretching method; assay type: in vivo, mouse (ddy); conditions: for Analgesic activity, acetic acid-induced stretching method, inhibitory ratio: 100 mg/kg oral, 1 hour before acetic acid; for inhibition in vivo at 100 mg/kg: po, read-out: Analgesic activity, acetic acid-induced stretching method, inhibitory ratio
Protocol: (§1) Next, several tests for determining the pharmacological properties, in that acute toxicity, anti-pyretic activity, analgesic activity and anti-inflammatory activity of the present 1,1,3,5-substituted biuret compounds of the formula (1) were conducted and the test results are shown in Table (2). In the tests, each compounds to be tested was used as a suspension in 0.25% carboxymethylcellulose solution. Methods for testing are explained as follows:
According to the method reported by Koster et al., [Fed. Proc., Vol. 18, pp. 412 (1959)], the ddy strain of male mice (body weight, 20-25 g) were used as test animals. The mice were fasted overnight, 100 mg/kg body weight of the test compound was administered orally, then 1 hour after the administration, 0.2 ml of 0.7% acetic acid solution was injected intraperitoneally. The acetic acid-induced stretching symptom of mouse was observed. Analgesic activity of the test compound was calculated as the inhibitory ratio (%). In Table 2, the values in parentheses show the data obtained from the test by using the dosage other than 100 mg/kg body weight. Further, the values indicated with Δ marks show 50% effective dose, ED50 (mg/kg body weight).

ddy strain of male mice [2] = assay: Analgesic activity, Haffner method (morphine threshold dose, clamp); assay type: in vivo, mouse (ddy)
Protocol: as §1
According to the modified method reported by Fujimura et. al., [Bulletin of the Institute for Chemical Research, Kyoto University, No. 25, pp. 36 (1951)], the ddy strain of male mice (body weight, 20-25 g) were used as test animals. The mice were fasted overnight, 100 mg/kg body weight of the test compound was administered orally, then 45 minutes after the administration, the threshold amount (1.5-2.5 mg/kg body weight) of morphine hydrochloride was injected subcutaneously. Then 1-hour pain reaction of the mouse caused by a clamp was observed. Analgesic activity of the test compound was calculated as the inhibitory ratio (%). In Table 2, the values in parentheses show the data obtained from the test by using the dosage other than 100 mg/kg body weight. Further, the values indicated with Δ marks show 50% effective dose, ED50 (mg/kg body weight).

[3] = system: Wistar strain of male rats; assay: Anti-pyretic activity (dry-yeast-induced fever); assay type: in vivo, rat (Wistar); conditions: oral (dose not given), up to 4 hours after administration
Protocol: as §1
According to the method reported by Tanabe [Folia Pharmacologia Japonica, Vol. 73, pp. 803 (1977)], the Wistar strain of male rats (150-180 g, body weight) were used as test animals. The rats were fasted overnight, and 1 ml/100 g (body weight) of 10% dry-yeast suspension were subcutaneously injected on the back of the rats. Five hours after the injection, the test compound was administered orally, then the body temperature of the rat was measured at time sequences. Anti-pyretic activity of the test compound was determined as the FI (febril index) by integrating pyrogenetic curve up to 4 hours after the administration of the test compound with time, and indicated as inhibitory ratio (%) shown by the following formula, [formula]

[4] = system: Wistar strain of male rats; assay: Anti-inflammatory activity (acute carrageenin-induced inflammatory test, hindpaw); assay type: in vivo, rat (Wistar); conditions: for inhibition in vivo at 100 mg/kg: Rattus norvegicus, read-out: Anti-inflammatory activity, inflammation inhibitory ratio
Protocol: as §1
According to the method of acute carrageenin-induced inflammatory test [Folia Pharmacologia Japonica, Vol. 56, pp. 575 (1960)], the Wistar strain of male rats (body weight, 150-180 g) were used as test animals. The rats were fasted overnight, 100 mg/kg body weight of the test compound was administered orally, then 1 hour after the administration, 0.1 ml of 1% carrageenin solution, as the inflammation inducing agent, was injected subcutaneously to the hindpaw of the rat and the volume of the hindpaw was measured at time sequences, Anti-inflammatory activity of the test compound was calculated as inflammation inhibitory ratio (%) at 3 hours after the injection of inflammation inducing agent.

ddy strain of male mice [5] = assay: Acute toxicity (oral, mice, 7 days observation); assay type: in vivo
Protocol: as §1
The ddy strain of male mice (body weight, 20-25 g) were used as test animals. The mice were fasted overnight and the compound to be tested was administered orally. […] The lethal dose (mg/kg, body weight) of the test compound was determined in connection with the death number of mice/the number of mice tested. In Table 2, the values indicated with Δ marks are 50% lethal dose, LD50 (mg/kg, body weight).

[6] = Mus musculus, oral, Δ mark, range in parentheses
[7] = 100 mg/kg oral, 3 hours after carrageenin
[8] = 100 mg/kg oral, 45 minutes before morphine hydrochloride

Structure (SMILES)	Anti-pyretic activity, inhibitory ratio (febril index) [3]	Anti-inflammatory activity, inflammation inhibitory ratio [4, 7]	Acute toxicity: death number of mice/number of mice tested (ddy strain of male mice [5]; 1000 mg/kg oral)	Analgesic activity, Haffner method, inhibitory ratio (ddy strain of male mice [2]; [8])	Analgesic activity, acetic acid-induced stretching method, inhibitory ratio (ddy strain of male mice [1])	Acute toxicity: death number of mice/number of mice tested (ddy strain of male mice [5]; 2000 mg/kg oral)	further results
CN(C)C(=O)N(C)C(=O)Nc1ccc(Cl)cc1 [Compound No. 12, 1,1,3-Trimethyl-5-(4-chlorophenyl)biuret]	84%	47%	–	–	–	–	ED50 (ddy strain of male mice [1]; [6]): 12 mg/kg; ED50 (ddy strain of male mice [2]; [6]): 20 mg/kg
CC(=O)c1ccc(NC(=O)N(C)C(=O)N(C)C)cc1 [compound 33, 1,1,3-Trimethyl-5-(4-acetylphenyl)biuret]	36%	–	4/4	37.5%	–	–	Acute toxicity: death number of mice/number of mice tested (ddy strain of male mice [5]; 500 mg/kg oral): 0/4; Anti-inflammatory activity, inflammation inhibitory ratio ([4]; 100 mg/kg oral, (2 hours)): 31%
CN(C)C(=O)N(C)C(=O)Nc1ccc([N+](=O)[O-])cc1 [compound 20, 1,1,3-Trimethyl-5-(4-nitrophenyl)biuret]	26%	32%	–	50%	–	–	Acute toxicity: death number of mice/number of mice tested (ddy strain of male mice [5]; 500 mg/kg oral): 2/4
COc1cc(NC(=O)N(C)C(=O)N(C)C)cc(OC)c1OC [compound 25, 1,1,3-Trimethyl-5-(3,4,5-trimethoxyphenyl)biuret]	23%	30%	2/4	62.5%	–	–	Acute toxicity: death number of mice/number of mice tested (ddy strain of male mice [5]; 500 mg/kg oral): 0/4
CN(C)C(=O)N(C)C(=O)Nc1cccc(Cl)c1 [compound 11, 1,1,3-Trimethyl-5-(3-chlorophenyl)biuret]	43%	–	–	–	62.5%	–	Analgesic activity, Haffner method, inhibitory ratio (ddy strain of male mice [2]; 200 mg/kg oral): 75%; Anti-inflammatory activity, inflammation inhibitory ratio ([4]; 100 mg/kg oral, (2 hours)): 30%
CCCCN(C)C(=O)NC(=O)Nc1ccccc1 [compound 47, 1-Methyl-1-n-butyl-5-phenylbiuret]	–	–	–	–	–	0/4	inhibition in vivo at 100 mg/kg (ddy strain of male mice [1]; Mus musculus): 50%; inhibition in vivo at 100 mg/kg (ddy strain of male mice [2]; Mus musculus, 100 mg/kg oral, 45 minutes before morphine hydrochloride, read-out: Analgesic activity, Haffner method, inhibitory ratio): 25%; inhibition in vivo at 100 mg/kg [4, 7]: 20%
COc1ccc(NC(=O)N(C)C(=O)N(C)C)cc1OC [compound 24, 1,1,3-Trimethyl-5-(3,4-dimethoxyphenyl)biuret]	18%	–	0/4	62.5%	75%	4/4	–
Cc1ccc(NC(=O)NC(=O)N(C)C)cc1 [Compound No. 5]	–	–	–	–	–	0/4	inhibition in vivo at 100 mg/kg (ddy strain of male mice [1]; Mus musculus): 25%; inhibition in vivo at 100 mg/kg ([4]; po, 2 h): 23%
Cc1c(Cl)cccc1NC(=O)N(C)C(=O)N(C)C [compound 32, 1,1,3-Trimethyl-5-(2-methyl-3-chlorophenyl)biuret]	45%	–	1/4	25%	75%	4/4	–
CN(C)C(=O)NC(=O)Nc1ccccc1 [Compound No. 1]	–	–	–	–	–	–	Acute toxicity: death number of mice/number of mice tested (ddy strain of male mice [5]; mouse, in vivo): 0/4; inhibition in vivo at 100 mg/kg (ddy strain of male mice [1]; Mus musculus): 50%; inhibition in vivo at 200 mg/kg (ddy strain of male mice [2]; Mus musculus, 200 mg/kg oral, read-out: Analgesic activity, Haffner method, inhibitory ratio): 50%; inhibition in vivo at 100 mg/kg [4, 7]: 42%
Cc1ccccc1NC(=O)N(C)C(=O)N(C)C [compound 26, 1,1,3-Trimethyl-5-(2-methylphenyl)biuret]	41%	29%	–	50%	37.5%	–	–
